In brackets after ≈: the same amount, converted by molar mass. Where two headings read alike, the source gives them in different places.
Assays:
[1] = Effect of temperature on viscosity (Gilmont falling ball viscometer); assay type: physicochemical
Experimental: As weather may dictate substantially different conditions of use, the effect of temperature on viscosity was determined. A Gilmont falling ball viscometer was filled with diethylene glycol monoethyl ether and calibrated for several hours at each temperature. At −17° C., 8° C., 23° C. and 40° C. the measured viscosity was 6.6 cP, 5.4 cP, 3.8 cP and 3.1 cP, respectively.

[2] = Drug recovery, degradation and binding to nasal sheep mucosa; assay type: in vitro ADME; details: sheep nasal mucosa (excised tissue) in buffer, 37° C., read-out: % recovery in the presence of nasal sheep mucosa
Experimental: (i) Drug recovery, degradation and binding to nasal sheep mucosa: The effect of drug recovery, degradation and binding to sheep nasal mucosa was determined. Briefly, a known surface area (approx. 1 cm^2) of sheep nasal mucosa was added into a glass vial containing a known concentration (10 μg/mL) of each drug prepared in the receiver fluid (10% ethanol in pH 6 buffer). The content of the vial was allowed to equilibrate at 37° C. over a period of 48 h. At 24 h intervals, a sample was removed and assayed via HPLC. The percentage of drug recovered was calculated using Equation 4: % drug recovered=(drug concentration at t=Y/drug concentration at t=Z)×100 (Equation 4)
where, Y=specific time point at 37° C. (in the presence of nasal sheep mucosa); and Z=specific time point at 37° C. (in the absence of nasal sheep mucosa).
In addition to the stability against heat degradation, the effect of drug binding or degradation in the presence of nasal sheep mucosa was also determined (Table 6).

[3] = in vivo; cited from earlier work
[4] = Human pharmacokinetic study (oral, intravenous, intranasal cross-over); details: after 1 mg clonazepam
Experimental: The human pharmacokinetics, safety, and tolerability of the benzodiazepines compositions of the present invention formulated for intranasal delivery for therapeutic applications are evaluated using standard clinical procedures. Benzodiazepine compositions formulated for intranasal delivery are provided, for example, for application by the participants to intranasal mucosa.
A primary objective of initial studies in humans is to determine and compare pharmacokinetic profiles of three dosage forms of a benzodiazepine: oral, i.v., and intranasal, following single administration. An example of such a study in humans is a cross-over study performed in 12 healthy male volunteers. Plasma and urine level of clonazepam and 7-amino-clonazepam are determined, for example, using HPLC and UV detection. […] Further the initial studies in humans are used to determine local tolerability of intranasal formulation using questionnaire and the Visual Analog Scale (VAS). VAS is a validated instrument that has been used in numerous studies to quantify subjective […]. In addition, cognitive, sleepiness and mood effects are evaluated using questionnaires and scales (see, e.g., Example 10 below). Further, attention and vigilance may be evaluated using, for example, LEEDS Psychomotor Multiple Choice Reaction Time (MCRT) testing.
A human pharmacokinetic study was carried out as described in Example 8.
15 young, healthy male volunteers received a single dose of 1 mg clonazepam by oral, intravenous and intranasal routes in a three-period cross-over design.

[5] = Saturated solubility in receiver fluid systems (HPLC); details: 37 °C, thermodynamic from solid
Experimental: Following the stability studies, a suitable receiver fluid was developed in order to ensure that sink conditions for tested drug were such that the drug release was limited by the solubility of the drug in the receiver fluid. […] Briefly, drug was saturated into different receiver fluid systems by adding excess drug and allowed to stir with a magnetic flea over a period of 2 h at 37° C. Each saturated solution was then filtered using a 0.2 μm syringe filter and the resultant solution was assayed via HPLC.
Calibration curves for clonazepam were constructed between 0.2 to 10 μg/mL with appropriate replicates to ensure repeatability and linearity.
Standards were prepared in receiver fluid (10% ethanol in buffer 6). […] The filtration at room temperature was performed as quickly as possible to minimize any drug precipitation as the temperature dropped from 37° C. during filtration.

[6] = Solubility of benzodiazepines in DEGEE (Transcutol) at 25° C. and −16° C.; details: organic solvent or mixture, thermodynamic from solid
Experimental: The solubilities of several other benzodiazepines were measured in DEGEE (diethylene glycol monoethyl ether, transcutol) by the techniques of Example 1. Initially, 10 mg of the drug was loaded in the glass vial and 130-μL of DEGEE was added, and the samples were sonicated for 10 minutes. […] Samples were stored at −16° C. and 25° C. overnight, and centrifuged (5000 rpm, 2 minutes, −10° C. and 23° C. for the −16° C. and 25° C. samples, respectively). […] Clonazepam was measured by UV at 350 nm; all others at 300 nm.

[7] = Viscosity of solvent matrices (Brookfield DV-I viscometer); assay type: physicochemical; details: solvent matrix without drug
Experimental: (§1) Fourteen representative solvent matrices used for clonazepam formulations were tested for spray pattern and compared with water. The solvent mixtures were made up, spiked with minute amounts of Coomassie Brilliant Blue Dye and 100 μL were subsequently filled into Pfeiffer unit-dose devices (Pfeiffer of America, Princeton, N.J.). To measure the spray pattern, the devices were actuated below a sheet of paper that was located 3 cm above the spray nozzle. All measurements were made at ambient room temperature (20-25° C.). The smallest (Dmin) and the largest (Dmax) diameter of the blue pattern formed on the sheet of paper were measured and the results used to calculate the Dmax/Dmin ratio, the area of the pattern and the average spray angle. The plume area at 3 cm was calculated using the equation for the area of an ellipse using the half of the two diameters as the ellipse radii. Viscosity of all formulations was measured using Brookfield DV-I viscometer (Brookfield Engineering Laboratories, Inc., Middleboro, Mass.).

[8] = Spray pattern of solvent matrices (plume area, spray angle, Dmax/Dmin); assay type: physicochemical; details: 100 μL from Pfeiffer unit-dose device, paper 3 cm above nozzle, 20-25° C.
Experimental: as §1

For `CCOCCOCCO` [diethylene glycol monoethyl ether], the viscosity ([1]; 8° C.) was 5.4 cP, the viscosity ([1]; 23° C.) was 3.8 cP and the viscosity ([1]; 40° C.) was 3.1 cP. It also gave a viscosity ([1]; −17° C.) of 6.6 cP.

For `CN1C(=O)CN=C(c2ccccc2)c2cc(Cl)ccc21` [Diazepam], the recovery at 24 h, 10 μg/mL ([2]; buffer pH 5 (10% ethanol)) was 97.6%, the recovery at 48 h, 10 μg/mL ([2]; buffer pH 5 (10% ethanol)) was 95.6% and the recovery at 24 h, 10 μg/mL ([2]; buffer pH 6 (10% ethanol)) was 98%. The recovery at 48 h, 10 μg/mL ([2]; buffer pH 6 (10% ethanol)) was 125%, the recovery at 24 h, 10 μg/mL ([2]; buffer pH 7 (10% ethanol)) was 97.6% and the recovery at 48 h, 10 μg/mL ([2]; buffer pH 7 (10% ethanol)) was 94.7%. For the same compound, the “roughly equal dose (potency equivalence)” value [3] was about 5.0 mg.

With `Nc1ccc2c(c1)C(c1ccccc1Cl)=NCC(=O)N2` [7-Amino-clonazepam] the “mean AUCt of metabolite” value ([4]; intranasal) was 16.9 ng·h/mL, the “mean Cmax of metabolite” value ([4]; intranasal) was 1.17 ng/mL and the “mean AUCt of metabolite” value ([4]; intravenous) was “approximately 30 ng·h/mL”. For the same compound, the “mean Cmax of metabolite” value ([4]; intravenous) was “approximately 2 ng/mL”, the “mean AUCt of metabolite” value ([4]; oral) was “approximately 30 ng·h/mL” and the “mean Cmax of metabolite” value ([4]; oral) was “approximately 2 ng/mL”.

Compound `O=C1Nc2ccc(Cl)cc2C(c2ccccc2Cl)=NC1O` (stereo not shown) [Lorazepam] has a solubility at 2 h ([5]; pH 6, aqueous buffer, buffer pH 6, 37° C.) of 78.5 µg/mL (≈ 244 µM), a solubility at 2 h ([5]; pH 6, aqueous with cosolvent or surfactant or cyclodextrin, 20% ethanol in buffer pH6, 37° C.) of 309 µg/mL (≈ 962 µM) and a solubility at 2 h ([5]; pH 6, aqueous with cosolvent or surfactant or cyclodextrin, receiver solution, 10% ethanol in buffer pH 6, 37° C.) of 126 µg/mL (≈ 392 µM). The solubility ([6]; 25 °C) was over 110000 µg/mL, the solubility ([6]; -16 °C) was over 130000 µg/mL and the recovery at 24 h, 10 μg/mL ([2]; buffer pH 5 (10% ethanol)) was 96.9%. It also gave a recovery at 48 h, 10 μg/mL ([2]; buffer pH 5 (10% ethanol)) of 94.9%, a recovery at 24 h, 10 μg/mL ([2]; buffer pH 6 (10% ethanol)) of 96.8% and a recovery at 48 h, 10 μg/mL ([2]; buffer pH 6 (10% ethanol)) of 97%. The recovery at 24 h, 10 μg/mL ([2]; buffer pH 7 (10% ethanol)) was 96.2%, the recovery at 48 h, 10 μg/mL ([2]; buffer pH 7 (10% ethanol)) was 91.7% and the half-life [3] was 8 to 24 h. For the same compound, the “roughly equal dose (potency equivalence)” value [3] was about 1.0 mg.

For `O` [Water], the Avg. viscosity [7] was 1.0 cP, the “Ratio Dmax/Dmin” value [8] was 1.10 and the Spray angle ([8]; average angle calculated from diameters) was 73.1 °. For the same compound, the “Plume area at 3 cm” value ([8]; ellipse area from Dmax and Dmin) was 15.52 cm^2.
